System: Plasmodium berghei
Assay: Luciferase/luciferin-expressing antifolate-resistant parasites were used to infect a culture of HepG2 cells that were pre-incubated with compounds. Infected hepatocytes emit light due to the luciferase reaction. Assay results are presented as the percent inhibition of light emission compared to control. […]
Format: functional
Conditions: sporozoite; for IC90: read-out: LUCIFERASE INFECTION ASSAY - IC90

In the case of `O=C(Nc1cc(C(F)(F)F)cc(C(F)(F)F)c1)Nc1cnn(-c2ccc([N+](=O)[O-])cc2)c1C(F)(F)F`, the IC50 (PBLUC_HILL_SLOPE 8.84, PBLUC_R_SQUARED 0.29, read-out: LUCIFERASE INFECTION ASSAY - IC50) is reported as 2.5 µM and the IC90 is reported as 3.21 µM.

Work on `CCCc1cc(NCc2ccccn2)n2nc(C)c(-c3ccccc3)c2n1` yielded an IC50 (PBLUC_HILL_SLOPE 8.47, PBLUC_R_SQUARED 0.549, read-out: LUCIFERASE INFECTION ASSAY - IC50) of 3.45 µM and an IC90 of 4.47 µM.

With `CN(C)CCCn1c(SCC(=O)N2c3ccccc3Sc3ccccc32)nc2ccccc2c1=O` the IC50 (PBLUC_HILL_SLOPE 9.03, PBLUC_R_SQUARED 0.19, read-out: LUCIFERASE INFECTION ASSAY - IC50) was 7.38 µM and the IC90 was 9.41 µM.

`CCN(CC)CCNC(=O)c1ccc(NC(=O)c2cccc(S(=O)(=O)N3CCc4ccccc43)c2)cc1` gave an IC50 (PBLUC_HILL_SLOPE 8.86, PBLUC_R_SQUARED 0.0114, read-out: LUCIFERASE INFECTION ASSAY - IC50) greater than 10 µM and an IC90 greater than 10 µM.

Work on `CCCNc1cc(-c2ccccc2)nc(-n2nc(C)cc2C)n1` yielded an IC50 (PBLUC_HILL_SLOPE 8.43, PBLUC_R_SQUARED 0.511, read-out: LUCIFERASE INFECTION ASSAY - IC50) of 3.27 µM and an IC90 of 4.24 µM.

`COc1cc(-c2cnc3cnc(-c4ccc(N5CCN(C)CC5)nc4)cn23)ccc1O` gave an IC50 (PBLUC_HILL_SLOPE 8.9, PBLUC_R_SQUARED 0.156, read-out: LUCIFERASE INFECTION ASSAY - IC50) of 7.05 µM and an IC90 greater than 7.92 µM.

`O=C(CCn1ccc2ccccc21)NC(Cc1ncc[nH]1)c1ccccc1` (stereo not given) gave an IC50 (PBLUC_HILL_SLOPE 8.72, PBLUC_R_SQUARED 0.12, read-out: LUCIFERASE INFECTION ASSAY - IC50) of 3.72 µM and an IC90 of 4.79 µM.

For `O=C(NCc1nccs1)c1nn(Cc2ccccc2)c2c1CN(C(=O)c1cc3ccccc3[nH]1)CC2`, the IC50 (PBLUC_HILL_SLOPE 8.98, PBLUC_R_SQUARED 0.075, read-out: LUCIFERASE INFECTION ASSAY - IC50) was 5.69 µM and the IC90 was greater than 6.65 µM.

`CNC(=O)c1cccc(-c2ccc3ncc(-c4cccc(OC(F)(F)F)c4)n3n2)c1` was tested, and the IC50 (PBLUC_HILL_SLOPE 8.51, PBLUC_R_SQUARED 0.256, read-out: LUCIFERASE INFECTION ASSAY - IC50) was 3.77 µM and the IC90 was 4.88 µM.

`COc1cc(Nc2nccc3c2cc(-c2ccc(C(=O)N(C)C)cc2)n3C)cc(C(F)(F)F)c1` gave an IC50 (PBLUC_HILL_SLOPE 8.8, PBLUC_R_SQUARED 0.371, read-out: LUCIFERASE INFECTION ASSAY - IC50) of 3.62 µM and an IC90 of 4.64 µM.

`O=C(Cn1ncc(Cl)c(Cl)c1=O)N(Cc1cccs1)c1ccc2c(c1)OCCO2` gave an IC50 (PBLUC_HILL_SLOPE 8.55, 0.379, PBLUC_R_SQUARED 0.113, 0.341, read-out: LUCIFERASE INFECTION ASSAY - IC50) of 6.34 µM and an IC90 greater than 10 µM.

For `CCCCCc1ccc(C(=O)Nc2nc3ccccn3c2C(=O)NCCCN2CCOCC2)cc1`, the IC50 (PBLUC_HILL_SLOPE 8.91, PBLUC_R_SQUARED 0.136, read-out: LUCIFERASE INFECTION ASSAY - IC50) was 2.74 µM and the IC90 was 3.5 µM.

In the case of `CCCCCc1ccc(-c2nnc(Sc3ccc(C(F)(F)F)cc3[N+](=O)[O-])[nH]2)cc1`, the IC50 (PBLUC_HILL_SLOPE 9.1, PBLUC_R_SQUARED 0.598, read-out: LUCIFERASE INFECTION ASSAY - IC50) is reported as 6.15 µM and the IC90 is reported as greater than 7.56 µM.

With `Cc1nc2ccccn2c1-c1nc(CCC2CCCCC2)c(C(=O)c2c(C)[nH]c3ccccc23)s1` the IC50 (PBLUC_HILL_SLOPE 8.8, PBLUC_R_SQUARED 0.142, read-out: LUCIFERASE INFECTION ASSAY - IC50) was 8.77 µM and the IC90 was greater than 10 µM.

`CCOC(=O)N1CCC(N/C=C(\C#N)S(=O)(=O)c2ccc(Cl)cc2)CC1` was tested, and the IC50 (PBLUC_HILL_SLOPE 8.69, PBLUC_R_SQUARED 0.709, read-out: LUCIFERASE INFECTION ASSAY - IC50) was 2.55 µM and the IC90 was 3.29 µM.

`COc1ccc(-c2cc3ncnc(NCC4CN(Cc5ccccc5)CCO4)c3s2)cc1` (stereo not given) was tested, and the IC50 (PBLUC_HILL_SLOPE 9.06, PBLUC_R_SQUARED 0.282, read-out: LUCIFERASE INFECTION ASSAY - IC50) was 8.38 µM and the IC90 was greater than 10 µM.

For `CC(C)Cc1ccc(CN2CCc3c(c(C(=O)N(C)Cc4cscn4)nn3CC3CC3)C2)cc1`, the IC50 (PBLUC_HILL_SLOPE 8.64, PBLUC_R_SQUARED 0.119, read-out: LUCIFERASE INFECTION ASSAY - IC50) was 5.84 µM and the IC90 was greater than 6.91 µM.

For `Cc1nc(NC(=O)c2ccc(C(C)(C)C)cc2)ccc1Br`, the IC50 (PBLUC_HILL_SLOPE 8.59, PBLUC_R_SQUARED 0.6, read-out: LUCIFERASE INFECTION ASSAY - IC50) was 7.43 µM and the IC90 was greater than 9.5 µM.

Work on `COc1ccc(C(CNc2nc(-c3cccnc3)nc3ccccc23)c2c[nH]c3ccccc23)cc1` (stereo not given) yielded an IC50 (PBLUC_HILL_SLOPE 8.92, PBLUC_R_SQUARED 0.072, read-out: LUCIFERASE INFECTION ASSAY - IC50) greater than 10 µM and an IC90 greater than 10 µM.

Work on `Cc1nccc(-c2ccc(NC(=O)c3cc(S(=O)(=O)NCc4ccccc4)ccc3C)cc2)n1` yielded an IC50 (PBLUC_HILL_SLOPE 8.64, PBLUC_R_SQUARED 0.681, read-out: LUCIFERASE INFECTION ASSAY - IC50) of 8.33 µM and an IC90 greater than 10 µM.

`CCCCN(C)CC(O)Cn1c2ccc(Br)cc2c2cc(Br)ccc21` (stereo not given) showed an IC50 (PBLUC_HILL_SLOPE 8.48, PBLUC_R_SQUARED 0.699, read-out: LUCIFERASE INFECTION ASSAY - IC50) of 5.83 µM and an IC90 greater than 7.05 µM.

In the case of `O=S(=O)(Nc1cccc2cccnc12)c1cc(Cl)c(Cl)cc1Cl`, the IC50 (PBLUC_HILL_SLOPE 9.06, PBLUC_R_SQUARED 0.472, read-out: LUCIFERASE INFECTION ASSAY - IC50) is reported as greater than 8.51 µM and the IC90 is reported as greater than 8.51 µM.

With `CCCCC(CC)C(=O)Nc1nc2ccccn2c1C(=O)NC1CCCCC1` (stereo not given) the IC50 (PBLUC_HILL_SLOPE 8.64, PBLUC_R_SQUARED 0.333, read-out: LUCIFERASE INFECTION ASSAY - IC50) was 8.01 µM and the IC90 was greater than 8.58 µM.

`COc1cncc(-c2cncc(Nc3ccc(C(C)C)cc3)c2)c1` gave an IC50 (PBLUC_HILL_SLOPE 9.07, PBLUC_R_SQUARED 0.477, read-out: LUCIFERASE INFECTION ASSAY - IC50) of 4.09 µM and an IC90 of 5.21 µM.

`Oc1ccc(/C=N/n2c(-c3ccco3)cs/c2=N\c2ccc(F)cc2F)c(O)c1` was tested, and the IC50 (PBLUC_HILL_SLOPE 8.45, PBLUC_R_SQUARED 0.234, read-out: LUCIFERASE INFECTION ASSAY - IC50) was 8.99 µM and the IC90 was greater than 10 µM.

In the case of `COc1ccccc1C1=NOC(=C2Sc3ccccc3C2=O)N1`, the IC50 (PBLUC_HILL_SLOPE 8.91, PBLUC_R_SQUARED 0.334, read-out: LUCIFERASE INFECTION ASSAY - IC50) is reported as 3.55 µM and the IC90 is reported as 4.54 µM.

`COC(=O)c1scc(C)c1N1C(=O)C=CC1=O` showed an IC50 (PBLUC_HILL_SLOPE 9.1, PBLUC_R_SQUARED 0.327, read-out: LUCIFERASE INFECTION ASSAY - IC50) greater than 13.1 µM and an IC90 greater than 13.1 µM.

In the case of `CCOC(=O)N1CCC(NC(=O)/C(=C/c2ccc(OC(F)F)cc2)c2ccccc2)CC1`, the IC50 (PBLUC_HILL_SLOPE 9.1, PBLUC_R_SQUARED 0.0303, read-out: LUCIFERASE INFECTION ASSAY - IC50) is reported as 7.82 µM and the IC90 is reported as 9.96 µM.

With `Cc1cccn2cc(CN3CCC(c4nc5ccccc5s4)CC3)nc12` the IC50 (PBLUC_HILL_SLOPE 8.96, 1.52, PBLUC_R_SQUARED 0.442, 0.954, read-out: LUCIFERASE INFECTION ASSAY - IC50) was 2.59 µM and the IC90 was 3.59 µM.

Compound `Nc1nc(SCC(=O)NC2CCCc3ccccc32)nc2sccc12` (stereo not given) has an IC50 (PBLUC_HILL_SLOPE 8.94, PBLUC_R_SQUARED 0.274, read-out: LUCIFERASE INFECTION ASSAY - IC50) of 9.02 µM and an IC90 greater than 10 µM.

`CCOC(=O)C1CCCN(CC(=O)N2N=C3/C(=C/c4ccc(Cl)cc4)CCCC3C2c2ccc(Cl)cc2)C1` (stereo not given) gave an IC50 (PBLUC_HILL_SLOPE 9.1, PBLUC_R_SQUARED 0.32, read-out: LUCIFERASE INFECTION ASSAY - IC50) of 7.93 µM and an IC90 greater than 10 µM.

`CC(OC(=O)c1ccccc1Nc1ccccc1)C(=O)NC1CC1` (stereo not given) gave an IC50 (PBLUC_HILL_SLOPE 8.51, PBLUC_R_SQUARED 0.0555, read-out: LUCIFERASE INFECTION ASSAY - IC50) of 8.65 µM and an IC90 greater than 10 µM.

Compound `O=C(N/N=C/c1ccc(N2CCCCC2)s1)c1ccccc1O` has an IC50 (PBLUC_HILL_SLOPE 8.76, 2.86, PBLUC_R_SQUARED 0.104, 0.555, read-out: LUCIFERASE INFECTION ASSAY - IC50) of 3.37 µM and an IC90 of 5.71 µM.

`CCCn1c(NC(=O)c2oc3ccccc3c2COCC)nc2ccccc21` showed an IC50 (PBLUC_HILL_SLOPE 8.76, PBLUC_R_SQUARED 0.513, read-out: LUCIFERASE INFECTION ASSAY - IC50) of 8.84 µM and an IC90 greater than 10 µM.

With `COc1ccc(-c2cnc3cnc(-c4ccc(C(=O)NCCO)cc4)cn23)cc1` the IC50 (PBLUC_HILL_SLOPE 8.42, PBLUC_R_SQUARED 0.632, read-out: LUCIFERASE INFECTION ASSAY - IC50) was 3.15 µM and the IC90 was 4.08 µM.

In the case of `CC(C)Oc1ccc(Nc2cc3c(cn2)cc(-c2cccc(C(F)(F)F)c2)n3C)cc1`, the IC50 (PBLUC_HILL_SLOPE 8.74, PBLUC_R_SQUARED 0.3, read-out: LUCIFERASE INFECTION ASSAY - IC50) is reported as 4.03 µM and the IC90 is reported as 5.18 µM.

`O=C(Nc1ccc(Oc2ccc(F)cc2)nc1)c1cccc(-n2cnnn2)c1` showed an IC50 (PBLUC_HILL_SLOPE 8.75, PBLUC_R_SQUARED 0.449, read-out: LUCIFERASE INFECTION ASSAY - IC50) of 8.72 µM and an IC90 greater than 10 µM.

`CCCCNC(=O)c1c(NC(=O)c2cccc(Cl)c2Cl)nc2ccccn12` showed an IC50 (PBLUC_HILL_SLOPE 8.82, PBLUC_R_SQUARED 0.193, read-out: LUCIFERASE INFECTION ASSAY - IC50) of 6.71 µM and an IC90 greater than 8.14 µM.

In the case of `COc1cccc2cc(/C=C/c3nc4ccccc4s3)oc12`, the IC50 (PBLUC_HILL_SLOPE 8.93, PBLUC_R_SQUARED 0.0906, read-out: LUCIFERASE INFECTION ASSAY - IC50) is reported as 3.2 µM and the IC90 is reported as 4.1 µM.

For `O=C1C=CC(=O)N1c1cccc(N2C(=O)C=CC2=O)c1`, the IC50 (PBLUC_HILL_SLOPE 9.05, PBLUC_R_SQUARED 0.121, read-out: LUCIFERASE INFECTION ASSAY - IC50) was 11.2 µM and the IC90 was greater than 12.3 µM.
